Measurements from US12390421B2, “Zwitterionic dendritic amphiphiles, zwitterionic dendrimers, zwitterionic telodendrimers, nanocarriers comprising same, and methods of making and using same” (The Research Foundation for the State University of New York, priority 2017, dated 2025).

Tested on: SKOV-3 cancer cell
Test: Cellular uptake of protein/drug loaded nanocarriers
Type: cell-based
Excerpt: Cellular uptake of protein/drug delivered by zwitterionic nanocarriers. The internalization of protein/drug loaded zwitterionic nanocarrier was studied against SKOV-3 cancer cell. […] Folate targeting group modification facilitates FITC-BSA-loaded NP_CB internalization into cells compared to non-targeted NP_CB. […] The ability of NPs to deliver drug into cells was studied using DOX as model drug by taking advantage of its intricate fluorescence.

Compound | cellular uptake of DOX (SKOV-3, DOX free or loaded, 2 h) | cellular uptake of FITC-BSA (SKOV-3, FITC-BSA free or loaded, 1 h)
COc1cccc2c1C(=O)c1c(O)c3c(c(O)c1C2=O)C[C@@](O)(C(=O)CO)C[C@@H]3O[C@H]1C[C@H](N)[C@H](O)[C@H](C)O1.Cl [free DOX, Doxorubicin hydrochloride] | Strong fluorescence and absolute presence of DOX in nucleus | 
free FITC-BSA: FITC-labeled BSA, model protein |  | no fluorescence signal
